The values that follow come from patent US6335350B1, “Acetamide and substituted acetamide-containing thiourea inhibitors of herpes viruses” (American Home Products Corporation, priority 1998, dated 2002).

For experiment [1], the system named is HCMV wild-type. Description: HCMV yield assay. To be noted: for IC50: Human betaherpesvirus 5, Fibroblast, read-out: IC50 Ug/ml HCMV. Type of experiment: cell-based, human cytomegalovirus. The method in brief:
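HCMV wild-type infected human foreskin fibroblast monolayers at MOI typically 0.2 with varying compound concentrations; virus yield harvested at 3 days post-infection and titered on fibroblasts without inhibitor, plaques counted at 2 weeks. IC50 or IC90 = compound amount reducing yield titer by 50% or 90%.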

In experiment [2] the test system is HSV-1. Description: HSV Antiviral (ELISA) Assay. Format: cell-based, herpes simplex virus type 1. The note with it: for IC50: Human alphaherpesvirus 1, Vero, read-out: IC50 Ug/ml HSV. Summed up: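 Vero cells in DMEM/2% FBS pretreated with compound 30 min before HSV-1 infection (MOI 0.006), then ~24 h at 37 °C. Viral gD detected by ELISA with β-galactosidase secondary and 4-methylumbelliferyl-galactoside (ex 365/em 450 nm); IC50 from fluorescence versus untreated infected cells.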
In general terms: In an ELISA, binding on a coated surface is turned into a signal by an enzyme label.

The test system of experiment [3] is VZV strain Ellen. Put plainly: VZV Antiviral (ELISA) Assay. Type of experiment: cell-based, varicella-zoster virus. The note with it: human foreskin fibroblast cells; for IC50 / inhibition at 10 µg/mL: Human alphaherpesvirus 3, Fibroblast; for IC50: read-out: IC50 Ug/ml VZV; for inhibition at 10 µg/mL: read-out: % inhibition 10 ug/ml VZV, 10 ug/ml. Summed up:
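HFF cells infected with VZV Ellen at low multiplicity (<0.1) overnight were seeded at 3.5×10^4 cells/well in DMEM with 2% FBS plus compound and incubated three days at 37° C., 5% CO2. Viral replication was read by ELISA against glycoprotein II with β-galactosidase fluorogenic readout (ex 365/em 450 nm); IC50 relative to no-compound fluorescence.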

In brackets after ≈: the same amount, converted by molar mass. Where two headings read alike, the source gives them in different places.

For the compound `CC(=O)Nc1ccc(NC(=S)Nc2ccc(NC(=O)CN3CCCCC3)c(Cl)c2)cc1` [Example 363, N-{4-[3-(4-Acetylamino-phenyl)-thioureido]-2-chloro-phenyl}-2-piperidin-1-yl-acetamide], the IC50 in experiment [1] (human foreskin fibroblasts) is 7 µg/mL (≈ 15.2 µM); in experiment [2] (Vero cells, HSV-1) it was > 10 µg/mL; in experiment [3], > 10 µg/mL. Moreover, in experiment [3], the inhibition at 10 µg/mL amounted to 58%.

`CC(=O)Nc1ccc(NC(=S)Nc2ccc(NC(=O)CN3CCOCC3)c(Cl)c2)cc1` [Example 366, N-{4-[3-(4-Acetylamino-phenyl)-thioureido]-2-chloro-phenyl}-2-morpholin-4-yl-acetamide]: the IC50 is > 10 µg/mL in experiment [1] (human foreskin fibroblasts); > 10 µg/mL in experiment [2] (Vero cells, HSV-1); > 10 µg/mL in experiment [3]. The inhibition at 10 µg/mL in experiment [3] is 16%.

Regarding `CC(=O)Nc1ccc(NC(=S)Nc2ccc(NS(C)(=O)=O)c(Cl)c2)cc1` [Example 369, N-{4-[3-(3-Chloro-4-methanesulfonylamino-phenyl)-thioureido]-phenyl}-acetamide], the IC50 in experiment [1] (human foreskin fibroblasts) was > 10 µg/mL; in experiment [2] (Vero cells, HSV-1), > 10 µg/mL; in experiment [3], > 10 µg/mL. Besides, in experiment [3], the inhibition at 10 µg/mL came out at 0%.

In the case of `CC(=O)Nc1ccc(NC(=S)Nc2ccc(NC(=O)CSCCN(C)C)c(Cl)c2)cc1` [Example 372, N-{4-[3-(4-Acetylamino-phenyl)-thioureido]-2-chloro-phenyl}-2-(2-dimethylamino-ethylsulfanyl)-acetamide], the IC50 in experiment [1] (human foreskin fibroblasts) is > 10 µg/mL; in experiment [2] (Vero cells, HSV-1), > 10 µg/mL; in experiment [3] it was > 10 µg/mL. Moreover, in experiment [3], the inhibition at 10 µg/mL turned out to be 53%.

`C=Cc1ccc(NC(=S)Nc2ccc(NC(C)=O)cc2)cc1Cl` [Example 377, N-{4-[3-(3-Chloro-4-vinyl-phenyl)-thioureido]-phenyl}-acetamide]: the IC50 in experiment [1] (human foreskin fibroblasts) is 0.8 µg/mL (≈ 2.31 µM); in experiment [2] (Vero cells, HSV-1), 3 µg/mL (≈ 8.67 µM); in experiment [3] it was > 10 µg/mL. Further, the inhibition at 10 µg/mL in experiment [3] came out at 28%.

`COc1cc(OC)c(NC(=S)Nc2ccc(NC(C)=O)cc2C#N)cc1Cl` [Example 383, N-{4-[3-(5-Chloro-2,4-dimethoxy-phenyl)-thioureido]-3-cyano-phenyl}-acetamide]: the IC50 in experiment [1] (human foreskin fibroblasts) is > 10 µg/mL; in experiment [2] (Vero cells, HSV-1), > 10 µg/mL; in experiment [3], > 10 µg/mL. Moreover, the inhibition at 10 µg/mL in experiment [3] was 38%.

With `CCN(CC)CC(=O)Nc1ccc(NC(=S)Nc2ccc(NC(C)=O)cc2)cc1Cl` [Example 412, N-{4-[3-(4-Acetylamino-phenyl)-thioureido]-2-chloro-phenyl}-2-diethyl-amino-acetamide], in experiment [1] (human foreskin fibroblasts), the “IC50 Ug/ml HCMV” value is >10 Ug/ml. Besides, the “IC50 Ug/ml HSV” value in experiment [2] (Vero cells, HSV-1) is >10 Ug/ml. In addition, the “% inhibition 10 ug/ml VZV” value in experiment [3] (10 ug/ml) was found to be 29%. In experiment [3], the “IC50 Ug/ml VZV” value is reported as >10 Ug/ml.

In the case of `CC(=O)Nc1ccc(NC(=S)Nc2ccccc2)cc1` [Example 814, N-[4-(3-Phenyl-thioureido)-phenyl]-acetamide], the IC50 in experiment [1], in experiment [2] and in experiment [3] was > 10 µg/mL each time. The inhibition at 10 µg/mL in experiment [3] stood at 15%.

`CC(=O)Nc1ccc(NC(=S)Nc2cccc(Cl)c2)cc1` [Example 816, N-{4-[3-(3-Chloro-phenyl)-thioureido]-phenyl}-acetamide]: the IC50 in experiment [1] (human foreskin fibroblasts) was 25 µg/mL (≈ 78.2 µM); in experiment [2] (Vero cells, HSV-1), 20 µg/mL (≈ 62.5 µM); in experiment [3] it was > 10 µg/mL. For the same compound, the inhibition at 10 µg/mL in experiment [3] stood at 30%.

Turning to `CCCCCC(=O)Nc1ccc(NC(=S)Nc2cc(Br)c(OC)cc2OC)cc1` [Example 826, Hexanoic acid {4-[3-(5-bromo-2,4-dimethoxy-phenyl)-thioureido]-phenyl}-amide], the IC50 in experiment [1] (human foreskin fibroblasts) was > 10 µg/mL; in experiment [2] (Vero cells, HSV-1), 3 µg/mL (≈ 6.24 µM); in experiment [3] it was > 10 µg/mL. Besides, the inhibition at 10 µg/mL in experiment [3] turned out to be 30%.

On to `CCOc1cc(OC)c(Cl)cc1NC(=S)Nc1ccc(NC(C)=O)cc1` [Example 831, N-{4-[3-(5-Chloro-2-ethoxy-4-methoxy-phenyl)-thioureido]-phenyl}-acetamide], for which the IC50 in experiment [1] (human foreskin fibroblasts) is > 10 µg/mL; in experiment [2] (Vero cells, HSV-1), 3 µg/mL (≈ 7.62 µM); in experiment [3], > 10 µg/mL. Besides, the inhibition at 10 µg/mL in experiment [3] worked out at 11%.

As for `CCOc1cc(OC)c(NC(=S)Nc2ccc(NC(C)=O)cc2)cc1Cl` [Example 832, N-{4-[3-(5-Chloro-4-ethoxy-2-methoxy-phenyl)-thioureido]-phenyl}-acetamide], the IC50 in experiment [1] (human foreskin fibroblasts) was > 50 µg/mL; in experiment [2] (Vero cells, HSV-1) it was 9 µg/mL (≈ 22.8 µM); in experiment [3] it was > 10 µg/mL. In experiment [3], the inhibition at 10 µg/mL turned out to be 15%.

In the case of `CCCCOc1cc(OC)c(Cl)cc1NC(=S)Nc1ccc(NC(C)=O)cc1` [Example 833, N-{4-[3-(2-Butoxy-5-chloro-4-methoxy-phenyl)-thioureido]-phenyl}-acetamide], the IC50 in experiment [1] (human foreskin fibroblasts) is > 10 µg/mL; in experiment [2] (Vero cells, HSV-1), 7 µg/mL (≈ 16.6 µM); in experiment [3], > 10 µg/mL. Besides, the inhibition at 10 µg/mL in experiment [3] stood at 54%.

`CCCCOc1cc(OC)c(NC(=S)Nc2ccc(NC(C)=O)cc2)cc1Cl` [Example 834, N-{4-[3-(4-Butoxy-5-chloro-2-methoxy-phenyl)-thioureido]-phenyl}-acetamide]: the IC50 in experiment [1] (human foreskin fibroblasts) is > 10 µg/mL; in experiment [2] (Vero cells, HSV-1), 10 µg/mL (≈ 23.7 µM); in experiment [3] it was 15 µg/mL (≈ 35.5 µM). In addition, the inhibition at 10 µg/mL in experiment [3] turned out to be 93%.

With `COc1cc(OCc2ccccc2)c(NC(=S)Nc2ccc(NC(C)=O)cc2)cc1Cl` [Example 835, N-{4-[3-(2-Benzyloxy-5-chloro-4-methoxy-phenyl)-thioureido]-phenyl}-acetamide], the IC50 in experiment [1] (human foreskin fibroblasts) was > 10 µg/mL; in experiment [2] (Vero cells, HSV-1), 8 µg/mL (≈ 17.5 µM); in experiment [3], > 10 µg/mL. In addition, the inhibition at 10 µg/mL in experiment [3] amounted to 38%.

As to `COc1cc(OCc2ccccc2)c(Cl)cc1NC(=S)Nc1ccc(NC(C)=O)cc1` [Example 836, N-{4-[3-(4-Benzyloxy-5-chloro-2-methoxy-phenyl)-thioureido]-phenyl}-acetamide], the IC50 is > 10 µg/mL in experiment [1] (human foreskin fibroblasts); 8 µg/mL (≈ 17.5 µM) in experiment [2] (Vero cells, HSV-1); 2.5 µg/mL (≈ 5.48 µM) in experiment [3]. For the same compound, the inhibition at 10 µg/mL in experiment [3] was 92%.

As to `COc1cc(OCC(N)=O)c(Cl)cc1NC(=S)Nc1ccc(NC(C)=O)cc1` [Example 838, 2-{4-[3-(4-Acetylamino-phenyl)-thioureido]-2-chloro-5-methoxy-phenoxy}-acetamide], the IC50 in experiment [1] (human foreskin fibroblasts) is > 10 µg/mL; in experiment [2] (Vero cells, HSV-1) it was > 50 µg/mL; in experiment [3], > 10 µg/mL. In addition, the inhibition at 10 µg/mL in experiment [3] came out at 20%.

Turning to `COc1cc(O)c(NC(=S)Nc2ccc(NC(C)=O)cc2)cc1Cl` [Example 839, N-{4-[3-(5-Chloro-2-hydroxy-4-methoxy-phenyl)-thioureido]-phenyl}-acetamide], the IC50 in experiment [1] (human foreskin fibroblasts) was 15 µg/mL (≈ 41 µM); in experiment [2] (Vero cells, HSV-1), 10 µg/mL (≈ 27.3 µM); in experiment [3], > 10 µg/mL. The inhibition at 10 µg/mL in experiment [3] came to 17%.

Take `CSc1ccc(NC(=S)Nc2ccc(NC(C)=O)cc2)cc1Cl` [Example 840, N-{4-[3-(3-Chloro-4-methylsulfanyl-phenyl)-thioureido]-phenyl}-acetamide]: the IC50 in experiment [1] (human foreskin fibroblasts) is 0.4 µg/mL (≈ 1.09 µM); in experiment [2] (Vero cells, HSV-1), 1.5 µg/mL (≈ 4.1 µM); in experiment [3], > 10 µg/mL. For the same compound, the inhibition at 10 µg/mL in experiment [3] worked out at 0%.

Regarding `CC(=O)Nc1ccc(NC(=S)Nc2ccc(N(C)C3CCN(C)CC3)c(Cl)c2)cc1` [Example 841, N-[4-(3-{3-Chloro-4-[methyl-(1-methyl-piperidin-4-yl)-amino]-phenyl}-thioureido)-phenyl]-acetamide], the IC50 in experiment [1] (human foreskin fibroblasts) was 0.9 µg/mL (≈ 2.02 µM); in experiment [2] (Vero cells, HSV-1), > 50 µg/mL; in experiment [3], > 10 µg/mL. The inhibition at 10 µg/mL in experiment [3] is 30%.

In the case of `CC(=O)Nc1ccc(NC(=S)Nc2ccc(N(C)c3ccccc3)c(Cl)c2)cc1` [Example 842, N-(4-{3-[3-Chloro-4-(methyl-phenyl-amino)-phenyl]-thioureido}-phenyl)-acetamide], the IC50 in experiment [1] (human foreskin fibroblasts) is 1.5 µg/mL (≈ 3.53 µM); in experiment [2] (Vero cells, HSV-1) it was > 10 µg/mL; in experiment [3], > 10 µg/mL. Further, in experiment [3], the inhibition at 10 µg/mL was found to be 33%.

In the case of `CC(=O)Nc1ccc(NC(=S)Nc2ccc(N(C)C3CCN(Cc4ccccc4)C3)c(Cl)c2)cc1` (stereo not drawn) [Example 843, N-[4-(3-{4-[(1-Benzyl-pyrrolidin-3-yl)-methyl-amino]-3-chloro-phenyl}-thioureido)-phenyl]-acetamide], the IC50 is 0.7 µg/mL (≈ 1.38 µM) in experiment [1] (human foreskin fibroblasts); 5 µg/mL (≈ 9.84 µM) in experiment [2] (Vero cells, HSV-1); > 10 µg/mL in experiment [3]. Moreover, the inhibition at 10 µg/mL in experiment [3] was found to be 50%.

Regarding `CC(=O)Nc1ccc(NC(=S)Nc2ccc(N(C)C3CCCC3)c(Cl)c2)cc1` [Example 844, N-(4-{3-[3-Chloro-4-(cyclopentyl-methyl-amino)-phenyl]-thioureido}-phenyl)-acetamide], the IC50 in experiment [1] (human foreskin fibroblasts) was 0.8 µg/mL (≈ 1.92 µM); in experiment [2] (Vero cells, HSV-1) it was 15 µg/mL (≈ 36 µM); in experiment [3] it was > 10 µg/mL. For the same compound, the inhibition at 10 µg/mL in experiment [3] worked out at 32%.

On to `CC(=O)Nc1ccc(NC(=S)Nc2ccc(N(C)C3CCN(C)C3)c(Cl)c2)cc1` (stereo not drawn) [Example 845, N-[4-(3-{3-Chloro-4-[methyl-(1-methyl-pyrrolidin-3-yl)-amino]-phenyl}-thioureido)-phenyl]-acetamide], for which the IC50 in experiment [1] (human foreskin fibroblasts) is 1 µg/mL (≈ 2.31 µM); in experiment [2] (Vero cells, HSV-1), 20 µg/mL (≈ 46.3 µM); in experiment [3], > 10 µg/mL. Moreover, the inhibition at 10 µg/mL in experiment [3] is 25%.
